Patent publication US12187721B2, “Protein tyrosine phosphatase inhibitors” (Array BioPharma Inc., priority 2018, dated 2025)
Like-named read-outs stand apart in the source and are kept apart here.

Target: T1, full-length SHP2 (His6-tagged SHP2(2-527)) (Homo sapiens, UniProt Q06124)
T1 construct: His6-tagged SHP2(2-527); His6; made in house; host or cells: E. coli
Assay: SHP2 Enzymatic Assay (fluorescence intensity kinetic assay, DiFMUP hydrolysis)
Format: biochemical
How it was run: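 1 nM His6-SHP2(2-527), activated by 1 μM bis-phosphopeptide, hydrolysed 50 μM DiFMUP in 25 mM HEPES pH 7.4 with 1 mM DTT, 50 mM KCl and 2% DMSO. DiFMU fluorescence (Ex 355/Em 460 nm) was read kinetically for 15 min at ambient temperature.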

[1] = full-length SHP2 with 1 μM activating peptide, 50 μM DiFMUP, single assay or mean of multiple assays, read-out: Biological Example 1 IC50

T1 sequence (Q06124 2-527): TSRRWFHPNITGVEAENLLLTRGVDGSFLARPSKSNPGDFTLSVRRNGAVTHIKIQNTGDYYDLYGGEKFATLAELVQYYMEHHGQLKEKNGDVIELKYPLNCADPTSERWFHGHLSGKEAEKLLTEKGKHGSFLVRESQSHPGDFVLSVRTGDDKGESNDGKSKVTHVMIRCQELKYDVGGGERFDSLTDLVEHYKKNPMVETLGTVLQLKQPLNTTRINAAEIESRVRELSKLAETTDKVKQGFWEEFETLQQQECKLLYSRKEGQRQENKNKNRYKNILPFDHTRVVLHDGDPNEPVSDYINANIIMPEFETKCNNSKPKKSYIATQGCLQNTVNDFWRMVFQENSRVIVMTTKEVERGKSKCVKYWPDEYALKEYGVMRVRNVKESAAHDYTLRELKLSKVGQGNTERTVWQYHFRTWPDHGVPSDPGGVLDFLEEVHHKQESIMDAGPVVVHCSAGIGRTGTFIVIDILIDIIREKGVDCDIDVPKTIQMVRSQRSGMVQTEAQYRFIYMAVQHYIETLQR

SMILES	IC50 [nM]	IC50 [1] [nM]
COCCC1(N)CCN(c2cnc3nc(Sc4ccnc(N)c4Cl)ccc3n2)CC1 [Example 182, 4-((2-(4-amino-4-(2-methoxyethyl)piperidin-1-yl)pyrido[2,3-b]pyrazin-6-yl)thio)-3-chloropyridin-2-amine]	80	
COc1ccc2c(c1)[C@@H](N)C1(CCN(c3cnc4nc(Sc5ccnc(N)c5Cl)ccc4n3)CC1)C2 [Example 219, (S)-1′-(6-((2-amino-3-chloropyridin-4-yl)thio)pyrido[2,3-b]pyrazin-2-yl)-6-methoxy-1,3-dihydrospiro[indene-2,4′-piperidin]-1-amine]	4190	
CCCC1(N)CCN(c2cnc3nc(Sc4ccnc(N)c4Cl)ccc3n2)CC1 [Example 173, 4-((2-(4-amino-4-propylpiperidin-1-yl)pyrido[2,3-b]pyrazin-6-yl)thio)-3-chloropyridin-2-amine]	237	
COc1cnc2c(c1)[C@@H](N)C1(CCN(c3cnc4nc(Sc5ccnc(N)c5Cl)ccc4n3)CC1)C2 [Example 115, (S)-1′-(6-((2-amino-3-chloropyridin-4-yl)thio)pyrido[2,3-b]pyrazin-2-yl)-3-methoxy-5,7-dihydrospiro[cyclopenta[b]pyridine-6,4′-piperidin]-5-amine]		60
Cc1nccc(Sc2ccc3nc(N4CCC[C@](C)(N)CC4)cnc3n2)c1Cl (single isomer, unassigned) [Example 151]	76	
COc1ccc2c(n1)CC1(CCN(c3cnc4nc(Sc5ccnc(N)c5Cl)ccc4n3)CC1)[C@H]2N (single isomer, unassigned) [Example 116]	36	
NCC1CC2CCC(C1)N2c1cnc2nc(Sc3ccnc(N)c3Cl)ccc2n1 (stereo not drawn) [Example 102, 4-((2-(3-(aminomethyl)-8-azabicyclo[3.2.1]octan-8-yl)pyrido[2,3-b]pyrazin-6-yl)thio)-3-chloropyridin-2-amine]	44	
NCC1CN(c2cnc3nc(Sc4cccc(Cl)c4Cl)ccc3n2)CCO1 (stereo not drawn) [Example 63, (4-(6-((2,3-dichlorophenyl)thio)pyrido[2,3-b]pyrazin-2-yl)morpholin-2-yl)methanamine]	280	
CC1(N)CCN(c2cnc3nc(Sc4ccnc5ncccc45)ccc3n2)CC1 [Example 197, 1-(6-((1,8-naphthyridin-4-yl)thio)pyrido[2,3-b]pyrazin-2-yl)-4-methylpiperidin-4-amine]	1510	
C[C@@H]1OCC2(CCN(c3cnc4nc(Sc5ccc(N)nc5Cl)ccc4n3)CC2)[C@@H]1N [Example 105, (3S,4S)-8-(6-((6-amino-2-chloropyridin-3-yl)thio)pyrido[2,3-b]pyrazin-2-yl)-3-methyl-2-oxa-8-azaspiro[4.5]decan-4-amine]	82	
C[C@@H]1OCC2(CCN(c3cnc4nc(Sc5c(C(F)(F)F)cnc6[nH]ccc56)ccc4n3)CC2)[C@@H]1N [Example 193, (3S,4S)-3-methyl-8-(6-((5-(trifluoromethyl)-1H-pyrrolo[2,3-b]pyridin-4-yl)thio)pyrido[2,3-b]pyrazin-2-yl)-2-oxa-8-azaspiro[4.5]decan-4-amine]	138	
Nc1nccc(Sc2ccc3nc(N4CC5CCCC(N)C5C4)cnc3n2)c1Cl (stereo not drawn) [Example 99, 2-(6-((2-amino-3-chloropyridin-4-yl)thio)pyrido[2,3-b]pyrazin-2-yl)octahydro-1H-isoindol-4-amine]	157	
CC1(N)CCN(c2cnc3nc(-c4ccnc(N5CCCC5)c4Cl)ccc3n2)CC1 [Example 19, 1-(6-(3-chloro-2-(pyrrolidin-1-yl)pyridin-4-yl)pyrido[2,3-b]pyrazin-2-yl)-4-methylpiperidin-4-amine]	1700	
COc1c(Sc2ccc3nc(N4CCC5(CC4)CO[C@@H](C)[C@H]5N)cnc3n2)ccnc1N [Example 153, (3S,4S)-8-(6-((2-amino-3-methoxypyridin-4-yl)thio)pyrido[2,3-b]pyrazin-2-yl)-3-methyl-2-oxa-8-azaspiro [4.5] decan-4-amine]	164	
Nc1nccc(Sc2ccc3nc(N4CCC(N)CC4)cnc3n2)c1Cl [Example 81, 4-((2-(4-aminopiperidin-1-yl)pyrido[2,3-b]pyrazin-6-yl)thio)-3-chloropyridin-2-amine]	72	
N#Cc1ccc2c(c1)[C@H](N)C1(CCN(c3cnc4nc(Sc5ccnc(N)c5Cl)ccc4n3)CC1)C2 [Example 111, (R)-1-amino-1′-(6-((2-amino-3-chloropyridin-4-yl)thio)pyrido[2,3-b]pyrazin-2-yl)-1,3-dihydrospiro[indene-2,4′-piperidine]-6-carbonitrile]	34	
CC1(N)CCN(c2cnc3nc(Sc4nccn5nccc45)ccc3n2)CC1 [Example 40, 4-methyl-1-(6-(pyrazolo[1,5-a]pyrazin-4-ylthio)pyrido[2,3-b]pyrazin-2-yl)piperidin-4-amine]	440	
COCC1(N)CCN(c2cnc3nc(Sc4ccnc(N)c4Cl)ccc3n2)CC1 [Example 53, 4-((2-(4-amino-4-(methoxymethyl)piperidin-1-yl)pyrido[2,3-b]pyrazin-6-yl)thio)-3-chloropyridin-2-amine]	123	

SMILES	IC50 [nM]	IC50 [1] [nM]
Nc1nccc(Sc2ccc3nc(N4CCC5NCC5C4)cnc3n2)c1Cl (stereo not drawn) [Example 103, 4-((2-(3,7-diazabicyclo[4.2.0]octan-3-yl)pyrido[2,3-b]pyrazin-6-yl)thio)-3-chloropyridin-2-amine]	79	
N#Cc1ccc2ncc(Sc3ccc4nc(N5CCC6(CC5)Cc5ccccc5[C@H]6N)cnc4n3)n2c1 [Example 172, (S)-3-((2-(1-amino-1,3-dihydrospiro[indene-2,4′-piperidin]-1′-yl)pyrido[2,3-b]pyrazin-6-yl)thio)imidazo[1,2-a]pyridine-6-carbonitrile]	112	
Nc1nccc(Sc2ccc3nc(N4C[C@H]5C[C@@H](C4)[C@H]5N)cnc3n2)c1Cl [Example 137]		64
NCC1CN(c2cnc3nc(Sc4ccnc(N)c4Cl)ccc3n2)C1 [Example 85, 4-((2-(3-(aminomethyl)azetidin-1-yl)pyrido[2,3-b]pyrazin-6-yl)thio)-3-chloropyridin-2-amine]	481	
COCCCNc1nccc(Sc2ccc3nc(N4CCC(C)(N)CC4)cnc3n2)c1Cl [Example 195, 4-((2-(4-amino-4-methylpiperidin-1-yl)pyrido[2,3-b]pyrazin-6-yl)thio)-3-chloro-N-(3-methoxypropyl)pyridin-2-amine]	506	
CN(C)C1(C)CCN(c2cnc3nc(-c4cccc(Cl)c4Cl)ccc3n2)CC1 [Example 18, 1-(6-(2,3-dichlorophenyl)pyrido[2,3-b]pyrazin-2-yl)-N,N,4-trimethylpiperidin-4-amine]	570	
CC1(CN)CCN(c2cnc3nc(-c4cccc(Cl)c4Cl)ccc3n2)CC1 [Example 27, (1-(6-(2,3-dichlorophenyl)pyrido[2,3-b]pyrazin-2-yl)-4-methylpiperidin-4-yl)methanamine]	500	
C[C@@H]1OCC2(CCN(c3cnc4nc(Sc5ccnc(C(F)(F)F)c5)ccc4n3)CC2)[C@@H]1N [Example 190, (3S,4S)-3-methyl-8-(6-((2-(trifluoromethyl)pyridin-4-yl)thio)pyrido[2,3-b]pyrazin-2-yl)-2-oxa-8-azaspiro[4.5]decan-4-amine]	3650	
Cc1nccc(Sc2ccc3nc(N4CCC[C@@](C)(N)CC4)cnc3n2)c1Cl (single isomer, unassigned) [Example 150]	50	
Nc1nccc(Sc2ccc3nc(N4CC5(Cc6ccccc6[C@@H]5N)C4)cnc3n2)c1Cl [Example 164, (S)-1-(6-((2-amino-3-chloropyridin-4-yl)thio)pyrido[2,3-b]pyrazin-2-yl)-1′,3′-dihydrospiro[azetidine-3,2′-inden]-1′-amine]	203	
CC1(N)CCN(c2cnc3nc(Sc4ccnc5c4CCN5)ccc3n2)CC1 [Example 196, 1-(6-((2,3-dihydro-1H-pyrrolo[2,3-b]pyridin-4-yl)thio)pyrido[2,3-b]pyrazin-2-yl)-4-methylpiperidin-4-amine]	563	
NCC1(F)CCN(c2cnc3nc(Sc4ccnc(N)c4Cl)ccc3n2)CC1 [Example 211, 4-((2-(4-(aminomethyl)-4-fluoropiperidin-1-yl)pyrido[2,3-b]pyrazin-6-yl)thio)-3-chloropyridin-2-amine]	54	
CC1(N)CCN(c2cnc3nc(Sc4cccc(Cl)c4Cl)ccc3n2)CC1 [Example 6, 1-(6-((2,3-dichlorophenyl)thio)pyrido[2,3-b]pyrazin-2-yl)-4-methylpiperidin-4-amine]	58	
Nc1nccc(Sc2ccc3nc(N4CCC5(CC4)Oc4ccccc4[C@H]5N)cnc3n2)c1Cl [Example 132]	31	
COc1cccc(-c2ccc3nc(N4CCC(C)(N)CC4)cnc3n2)c1Cl [Example 37, 1-(6-(2-chloro-3-methoxyphenyl)pyrido[2,3-b]pyrazin-2-yl)-4-methylpiperidin-4-amine]	1100	
COc1nc(N)cc(Sc2ccc3nc(N4CCC5(CC4)Cc4ccccc4[C@H]5N)cnc3n2)c1Cl [Example 171, (S)-1′-(6-((6-amino-3-chloro-2-methoxypyridin-4-yl)thio)pyrido[2,3-b]pyrazin-2-yl)-1,3-dihydrospiro[indene-2,4′-piperidin]-1-amine]	56	
CC1(N)CCN(c2cnc3nc(-c4cccc(Cl)c4F)ccc3n2)CC1 [Example 16, 1-(6-(3-chloro-2-fluorophenyl)pyrido[2,3-b]pyrazin-2-yl)-4-methylpiperidin-4-amine]	290	
Nc1nccc(Sc2ccc3nc(N4CCC5(CC4)c4ccccc4[C@@H]5N)cnc3n2)c1Cl [Example 166, (R)-1′-(6-((2-amino-3-chloropyridin-4-yl)thio)pyrido[2,3-b]pyrazin-2-yl)spiro[bicyclo[4.2.0]octane-7,4′-piperidine]-1(6),2,4-trien-8-amine]	3990	
